A short description of this data set: solvent given as SMILES.

`O=c1c(Nc2ccccc2)c([O-])c1=[NH+]c1ccccc1`: the absorption maximum (in C1CCOC1) is 401 nm; the absorption maximum (in CC#N) turned out to be 390 nm; the absorption maximum (in CC(C)=O) was 398 nm; the absorption maximum (in CCO) came out at 393 nm; the absorption maximum (in CCOCC) was 400 nm; the absorption maximum (in CN1CCCC1=O) is reported as 393 nm. In addition, the absorption maximum reads like this: (in CN(C)C=O) 393 nm; (in CO) 390 nm; (in CS(C)=O) 378 nm; (in O) 374 nm.

Where the note is “in ClC(Cl)Cl”, `CCCN1c2ccccc2Sc2cc(/C=C\c3cc(=O)oc4ccc(C)cc34)ccc21` showed an absorption maximum of 423 nm.

Under “in ClC(Cl)Cl”, `C[Si](C)(C)C#C[Si](c1c2ccccc2cc2ccccc12)(c1c2ccccc2cc2ccccc12)c1c2ccccc2cc2ccccc12` gave an absorption maximum of 404 nm.

Compound `C1=Cc2ccccc2C(=Cc2ccc(C=C3c4ccccc4C=Cc4ccccc43)cc2)c2ccccc21` registered an absorption maximum (in C1CCOC1) of 333 nm.

With `c1ccc2c(c1)c1ccccc1n2-c1ccc2cc(-c3ccc(-c4ccc(-c5cc6ccc(-n7c8ccccc8c8ccccc87)cc6o5)cc4)cc3)oc2c1`, the absorption maximum runs as follows: (in Cc1ccccc1) 369 nm; (in c1ccc2c(c1)c1ccccc1n2-c1ccc(-c2ccc(-n3c4ccccc4c4ccccc43)cc2)cc1) 380 nm.

As to `C(=C\c1ccc(-c2ccc(/C=C/c3ccc(-n4c5ccccc5c5ccccc54)cc3)s2)s1)/c1ccc(-n2c3ccccc3c3ccccc32)cc1`, the absorption maximum (in Cc1ccccc1) came to 440.22 nm.

On to `c1ccc(-c2cc(-c3ccc4ccc5cccc6ccc3c4c56)ccn2)nc1`, for which the absorption maximum is 344 nm (in C1CCOC1); 342.99 nm (in CC#N); 342.99 nm (in CCC#N); 344 nm (in CCCC#N); 342 nm (in CCCCCC); 342.99 nm (in CCCO). Also, the absorption maximum was determined as 342.99 nm (in CCO), 342.99 nm (in CO) and 342.99 nm (in Cc1ccccc1).

Regarding `CC/[NH+]=c1\cc2oc3cc(NCCN)c4ccccc4c3nc-2cc1C`, the absorption maximum amounted to 590 nm (in CCO) and 590 nm (in O).

As to `CCCSC1=[N+]2C(=C(c3ccccc3)c3ccc(SCCC)n3[B-]2(F)F)C=C1SC#N`, the absorption maximum (in CC#N) is 536 nm; the absorption maximum (in CCCCCC) is 556 nm; the absorption maximum (in CCOC(C)=O) turned out to be 545 nm; the absorption maximum (in CO) is on record as 536 nm; the absorption maximum (in ClCCl) is given as 545 nm.

As to `O=c1c2cc(F)ccc2nc2n1[B-](F)(F)[n+]1ccccc1-2`, the absorption maximum reads like this: (in CC#N) 337 nm; (in ClCCl) 350 nm.

Regarding `O=c1c2ccccc2n2c3ccccc3c(=O)c3cccc1c32`, the absorption maximum (in Cc1ccccc1) came to 432.96 nm.

Regarding `Fc1ccc(C#Cc2c(C#Cc3ccc(F)cc3)c(C#Cc3ccc(F)cc3)c(C#Cc3ccc(F)cc3)c(C#Cc3ccc(F)cc3)c2C#Cc2ccc(F)cc2)cc1`, the absorption maximum (in ClCCl) was found to be 368 nm.

For the compound `O=C1c2ccccc2-c2ccc(N3CCN(c4ccccc4)CC3)c3cccc1c23`, the absorption maximum reads like this: (in C1CCCCC1) 423 nm; (in C1CCOC1) 438 nm; (in C1COCCO1) 436.2 nm; (in CC1COC(=O)O1) 445.6 nm; (in CC#N) 444 nm; (in CC(C)=O) 441.2 nm. Further, the absorption maximum runs as follows: (in CCCCCCCCO) 445 nm; (in CCCCCO) 446 nm; (in CCCCO) 444 nm; (in CCCO) 445 nm; (in CCO) 446.8 nm; (in CCOC(C)=O) 436 nm. The absorption maximum runs as follows: (in CN(C)C=O) 447.2 nm; (in CO) 445 nm; (in CS(C)=O) 452 nm; (in Cc1ccccc1) 435.8 nm; (in ClC(Cl)Cl) 443 nm.

As to `CCn1c2ccccc2c2cc3c(cc21)c1ccccc1n3CC`, the absorption maximum (in ClC(Cl)Cl) is listed as 419 nm.

`CC1=CC(C)=[N+]2C1=Cc1c3ccccc3c(C#Cc3ccc(F)cc3)n1[B-]2(F)F`: the absorption maximum runs as follows: (in CCCCCC) 609 nm; (in CCCCCCCCO) 613 nm; (in CCOC(C)=O) 607 nm; (in CN(C)C=O) 612 nm.

For the setting “in CO”, `C#CCOc1ccc(/C=C/C2=[N+]3C(=C(c4ccc(N5CCCCC5)cc4)c4c(C)cc(C)n4[B-]3(F)F)C(C)=C2)cc1` gave an absorption maximum of 568 nm.

Under “in ClCCl”, `Cc1cc(C)c(C2=C3C=C(/C=C/C(=O)OCc4ccccc4)C=[N+]3[B-](F)(F)n3cccc32)c(C)c1` had an absorption maximum of 537 nm.

In turn, `CN(C)c1ccc(/C=C/c2nc3cc(Br)ccc3nc2-c2ccccc2)cc1` showed an absorption maximum (in C1COCCO1) of 445 nm, an absorption maximum (in CC#N) of 448 nm and an absorption maximum (in ClCCl) of 453 nm.

Regarding `CC(C)(C)C1Nc2ccccc2C(=O)N1Cc1ccccc1` (stereo unspecified), the absorption maximum came to 344 nm (in CC#N); 333 nm (in CCCCCCCCCCCCCCCC); 353 nm (in CO); 341 nm (in ClC(Cl)Cl); 339 nm (in c1ccccc1).

Take `c1ccc2cc3c(cc2c1)-c1cccc2cc4ccccc4c-3c12`: the absorption maximum (in CCCCCCC) is on record as 469 nm.

Take `CNc1cc2nc3cc(Br)c(Br)cc3nc2cc1NC`: for the setting “in CCO”, the absorption maximum is given as 443 nm.

In turn, `COc1ccc(C(=Cc2ccc(/C=C(\C#N)c3ccccc3)cc2)c2ccc(OC)cc2)cc1` showed an absorption maximum (in C1CCOC1) of 388 nm.

Under “in Cc1ccccc1”, `Cc1ccc2c(c1)C1(c3ccccc3-c3ccccc31)c1cc(C)ccc1N2c1ccc2c(c1)Sc1ccccc1P2(=S)c1ccccc1` (stereo unspecified) showed an absorption maximum of 311.25 nm.

For the compound `c1ccc(-c2nc(-c3ccccc3)nc(-c3ccc(-n4c5ccccc5c5cc(-n6c7ccccc7c7ccccc76)ccc54)cc3)n2)cc1`, the absorption maximum (in Cc1ccccc1) was 367 nm.

`COc1ccc(-c2csc(/C(C#N)=C/c3ccc(Cl)cc3)n2)cc1` gave an absorption maximum (in CC#N) of 376 nm.

In the case of `COc1cc(-c2ncc(-c3ccncc3)o2)cc(OC)c1OC`, where the note is “in ClCCl”, the absorption maximum was determined as 326 nm.

For the compound `COc1ccc([C@@H]2C[C@](O)(c3ccccn3)C[C@](O)(c3ccccn3)[C@H]2C(=O)c2ccc(N(c3ccccc3)c3ccccc3)cc2)cc1`, the absorption maximum worked out at 366 nm (in C1CCOC1); 366 nm (in CC#N); 366 nm (in CCO); 366 nm (in CCOC(C)=O); 358 nm (in CN(C)C=O); 370 nm (in ClCCl). The compound also came in with an absorption maximum (in c1ccccc1) of 370 nm.

As to `O=C1CC(=O)Nc2cc(Br)ccc2N1`, the absorption maximum (in CS(C)=O) was 299 nm.

For the compound `CC[n+]1c(C=C2C(=O)C(C=C3N(C)c4ccccc4C3(C)C)=C2[O-])[se]c2ccccc21`, the absorption maximum reads like this: (in CO) 643 nm; (in ClC(Cl)Cl) 657 nm; (in ClCCl) 658 nm.

Under “in ClCCl”, `CCCCCc1ccc(C#Cc2cc(C#Cc3ccc(CCCCC)cc3)c3ccc4c(C(=O)c5ccccc5)cc(C#Cc5ccc(CCCCC)cc5)c5ccc2c3c54)cc1` returned an absorption maximum of 457 nm.

The compound `CC(C)(C)c1cc2ccc3c(N(c4ccccc4)c4ccccc4)cc(N(c4ccccc4)c4ccccc4)c4ccc(c1)c2c34` returned an absorption maximum (in ClCCl) of 414 nm.

Turning to `Cc1ccccc1-c1c2ccc(=[N+]3CCCCC3)cc-2oc2cc(N3CCCCC3)ccc12`, the absorption maximum by setting is: (in CCO) 564 nm; (in ClCCl) 565 nm.

As for `O=C1OC(c2ccccc2)=N/C1=C\c1ccccc1`, under “in C1COCCO1”, the absorption maximum is reported as 363 nm.

For the origin of these results see the Deep4Chem optical property database.
